Source: patent publication US20170007610A1, “NOVEL HETEROBICYCLIC COMPOUNDS AS KAPPA OPIOID AGONISTS” (priority 2014, published 2017)
Where two headings read alike, the source gives them in different places.

Experiments:
[1] = target: T1, kappa opioid receptor (Homo sapiens, UniProt P41145); assay: Invitro KOR agonistic activity, cAMP based functional assay; type: cell-based
T1 construct: grown in complete Ham's F-12 medium

[2] = target: T2, kappa opioid receptor (Mus musculus, UniProt P33534); assay: Ex-vivo KOR agonistic activity, electrically stimulated mouse vas deferens (MVD) model
T2 construct: from tissue; host or cells: mouse vas deferens (male Swiss Albino mice)
T2 sequence (P33534 whole entry): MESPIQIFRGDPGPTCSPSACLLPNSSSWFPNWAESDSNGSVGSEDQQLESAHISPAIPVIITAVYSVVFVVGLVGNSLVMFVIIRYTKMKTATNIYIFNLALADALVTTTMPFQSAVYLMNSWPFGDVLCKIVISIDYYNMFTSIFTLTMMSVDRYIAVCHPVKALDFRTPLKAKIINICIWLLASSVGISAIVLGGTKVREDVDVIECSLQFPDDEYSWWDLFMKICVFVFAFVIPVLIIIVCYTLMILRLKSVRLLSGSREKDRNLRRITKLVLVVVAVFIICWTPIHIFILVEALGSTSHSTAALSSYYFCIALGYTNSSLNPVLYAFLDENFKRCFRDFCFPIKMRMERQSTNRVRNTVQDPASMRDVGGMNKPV
Procedure: a) Ex-Vivo KOR Agonistic Activity Testing, Using Electrically Stimulated Mouse Vas Deferens (MVD) Model:
Ex-vivo, the kappa opioid receptor agonistic activity of test compounds were tested on the electrically stimulated mouse vas deferens (MVD) preparations (Henderson et al., Br. J. Pharmacol., 46, 764-766, 1972; Portoghese et al., Life Sci. 36, 801-805, 1985) and IC50 were determined. In general, vas deferentia were taken from male Swiss Albino mice (30-40 g) and suspended in 8 ml organ baths, at 31° C., containing modified Krebs-Henseleit solution, without magnesium sulphate. Each vas deferens was equilibrated for 45 min at 2.6 mN tension and then stimulated at supramaximal voltage with five 1 ms pulses, at a frequency of 0.1 Hz. Concentration-response curves were determined by cumulative dosing. Inhibitory Concentration, 50% (IC50) values were determined by Sigmoidal dose-response (variable slope) equation, using Prizm v 6.01. The kappa opioid receptor specificity was determined by rightward shift in concentration-response curves in presence of 1 nM norbinaltorphimine (norBNI), a selective kappa opioid receptor antagonist.

[3] = electrically stimulated mouse vas deferens preparation, cumulative dosing, read-out: Ex-vivo IC50
[4] = cAMP direct ELISA, forskolin 20 μM, agonist 20 minutes, read-out: In-vitro EC50

T1 sequence (P41145 whole entry): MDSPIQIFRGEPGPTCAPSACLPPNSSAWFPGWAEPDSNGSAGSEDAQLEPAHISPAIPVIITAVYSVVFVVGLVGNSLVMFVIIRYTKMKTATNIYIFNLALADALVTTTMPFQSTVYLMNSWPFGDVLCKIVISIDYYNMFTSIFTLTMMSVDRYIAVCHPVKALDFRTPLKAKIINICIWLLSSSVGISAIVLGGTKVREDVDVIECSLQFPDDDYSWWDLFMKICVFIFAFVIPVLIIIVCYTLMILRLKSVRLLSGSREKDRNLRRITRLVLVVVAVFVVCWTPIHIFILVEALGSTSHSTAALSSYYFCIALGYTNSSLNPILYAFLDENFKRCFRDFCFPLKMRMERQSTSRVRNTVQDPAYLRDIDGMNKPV

## CN(C(=O)COc1ccc2ccoc2c1)[C@H](CN1CC[C@H](O)C1)c1cccc([N+](=O)[O-])c1 [Compound 55, 2-(benzofuran-6-yloxy)-N-((S)-2-((S)-3-hydroxypyrrolidin-1-yl)-1-(3-nitrophenyl)ethyl)-N-methylacetamide]
[1]
  EC50: 1.92 nM
[2]
  IC50: 307 nM

## CN1CCCc2cccc(OCC(=O)N(C)[C@H](CN3CC[C@H](O)C3)c3ccccc3)c21 [Compound 13, N-((S)-2-((S)-3-hydroxypyrrolidin-1-yl)-1-phenylethyl)-N-methyl-2-((1-methyl-1,2,3,4-tetrahydroquinolin-8-yl)oxy)acetamide]
[1]
  EC50: 0.91 nM
[2]
  IC50: 125 nM

## CN(C(=O)COc1nccc2ccccc12)[C@H](CN1CC[C@H](O)C1)c1ccccc1 [Compound 9, N-((S)-2-((S)-3-hydroxypyrrolidin-1-yl)-1-phenylethyl)-2-(isoquinolin-1-yloxy)-N-methylacetamide]
[1]
  EC50: 0.012 nM
[2]
  IC50: 13 nM

## CN(C(=O)COc1ccc([N+](=O)[O-])c2cccnc12)[C@H](CN1CC[C@H](O)C1)c1ccccc1 [Compound 7, N-((S)-2-((S)-3-hydroxypyrrolidin-1-yl)-1-phenylethyl)-N-methyl-2-((5-nitroquinolin-8-yl)oxy)acetamide]
[1]
  EC50: 0.015 nM
[2]
  IC50: 0.84 nM

## CN(C(=O)COc1ccc2ccccc2n1)[C@H](CN1CC[C@H](O)C1)c1ccccc1 [Compound 1, N-((S)-2-((S)-3-hydroxypyrrolidin-1-yl)-1-phenylethyl)-N-methyl-2-(quinolin-2-yloxy)acetamide]
[1]
  EC50: 0.022 nM
[2]
  IC50: 3.5 nM

## CN(C(=O)COc1cccc2c1NCC2)[C@H](CN1CC[C@H](O)C1)c1ccccc1 [Compound 29, N-((S)-2-((S)-3-hydroxypyrrolidin-1-yl-)-1-phenylethyl)-2-(indolin-7-yloxy)-N-methylacetamide]
[1]
  EC50: 0.11 nM
[2]
  IC50: 147 nM

## CN(C(=O)COc1ccc2c3c1CCCN3S(=O)(=O)N2)[C@H](CN1CC[C@H](O)C1)c1ccccc1 [Compound 30]
[1]
  EC50: 900 nM
[2]; [3]
  IC50: 9400 nM

## CN(C(=O)COc1cc(NS(C)(=O)=O)c2ccccc2n1)[C@H](CN1CC[C@H](O)C1)c1ccccc1 [Compound 3, N-((S)-2-((S)-3-hydroxypyrrolidin-1-yl)-1-phenylethyl)-N-methyl-2-((4-methylsulfonamido)quinolin-2-yloxy)acetamide]
[1]
  EC50: 0.035 nM
[2]
  IC50: 414 nM

## CN(C(=O)COc1ccc2c(c1)CCCN2)[C@H](CN1CC[C@H](O)C1)c1ccccc1 [Compound 21, N-((S)-2-((S)-3-hydroxypyrrolidin-1-yl)-1-phenylethyl)-N-methyl-2-((1,2,3,4-tetrahydroquinolin-6-yl)oxy)acetamide]
[1]
  EC50: 1.23 nM
[2]
  IC50: 570 nM

## CN(C(=O)COc1ccc([N+](=O)[O-])c2c1NCCC2)[C@H](CN1CC[C@H](O)C1)c1ccccc1 [Compound 8, N-((S)-2-((S)-3-hydroxypyrrolidin-1-yl)-1-phenylethyl)-N-methyl-2-((5-nitroquinolin-1,2,3,4-tetrahydroquinolin-8-yl)oxy)acetamide]
[1]
  EC50: 0.018 nM
[2]
  IC50: 6.2 nM

## CN(C(=O)COc1ccc2cc(NS(C)(=O)=O)ccc2n1)[C@H](CN1CC[C@H](O)C1)c1ccccc1 [Compound 2, N-((S)-2-((S)-3-hydroxypyrrolidin-1-yl)-1-phenylethyl)-N-methyl-2-((6-methylsulfonamido)quinolin-2-yloxy)acetamide]
[1]
  EC50: 4.93 nM
[2]
  IC50: 2590 nM

## N-((S)-2-((S)-3-hydroxypyrrolidin-1-yl)-1-phenylethyl)- N-methyl-2-((8-sulfonamido)quinolin-5-yloxy)acetamide [Compound 36]
[1]; [4]
  EC50: 1.12 nM
[2]; [3]
  IC50: 7.8 nM

## CN(C(=O)COc1ncc2ccc(Br)cc2n1)[C@H](CN1CC[C@H](O)C1)c1ccccc1 [Compound 28, 2-((7-bromoquinazolin-2-yl)oxy)-N-((S)-2-((S)-3-hydroxypyrrolidin-1-yl)-1-phenylethyl)-N-methylacetamide]
[1]
  EC50: 1.42 nM
[2]
  IC50: 1490 nM

## CN(C(=O)COc1ccc(NC(=N)N)c2ncccc12)[C@H](CN1CC[C@H](O)C1)c1ccccc1 [Compound 40, 2-((8-guanidinoquinolin-5-yl)oxy)-N-((S)-2-((S)-3-hydroxypyrrolidin-1-yl)-1-phenylethyl)-N-methylacetamide]
[1]
  EC50: 0.007 nM
[2]
  IC50: 1.1 nM

## CN(C(=O)COc1ccc2c(c1)OCC2)[C@H](CN1CC[C@H](O)C1)c1ccccc1 [Compound 18, 2-((2,3-dihydrobenzofuran-6-yl)oxy)-N-((S)-2-((S)-3-hydroxypyrrolidin-1-yl)-1-phenylethyl)-N-methylacetamide]
[1]
  EC50: 0.07 nM
[2]
  IC50: 8.2 nM

## COc1cccc([C@@H](CN2CC[C@H](O)C2)N(C)C(=O)COc2ccc(NS(C)(=O)=O)c3ncccc23)c1 [Compound 49, N-((S)-2-((S)-3-hydroxypyrrolidin-1-yl)-1-(3-methoxyphenyl)ethyl)-N-methyl-2-((8-(methylsulfonamido)quinolin-5-yl)oxy) acetamide]
[1]
  EC50: 0.032 nM
[2]
  IC50: 1.9 nM

## CN(C(=O)COc1ccc(NS(C)(=O)=O)c2ncccc12)[C@H](CN1CC[C@H](O)C1)c1cccc(OCC(=O)O)c1 [Compound 51]
[1]; [4]
  EC50: 0.11 nM
[2]; [3]
  IC50: 16 nM

## CN(C(=O)COc1ccc(NS(=O)(=O)N2CCCC2)c2ncccc12)[C@H](CN1CC[C@H](O)C1)c1ccccc1 [Compound 38]
[1]
  EC50: 0.95 nM
[2]
  IC50: 7.4 nM

## N-((S)-2-((S)-3-hydroxypyrrolidin-1-yl)-1-phenylethyl)- N-methyl-2-((8-(pyrrolidine-1-sulfonamido)-1,2,3,4- tetrahydroquinolin-5-yloxy)acetamide [Compound 39]
[1]; [4]
  EC50: 0.088 nM
[2]; [3]
  IC50: 0.95 nM

## CN(C(=O)COc1cccc2c1NCCC2)[C@H](CN1CC[C@H](O)C1)c1ccccc1 [Compound 11, N-((S)-2-((S)-3-hydroxypyrrolidin-1-yl)-1-phenylethyl)-N-methyl-2-(1,2,3,4-tetrahydroquinolin-8-yloxy)acetamide]
[1]
  EC50: 0.004 nM
[2]
  IC50: 1.6 nM

## CCOC(=O)COc1cccc([C@@H](CN2CC[C@H](O)C2)N(C)C(=O)COc2ccc(NS(C)(=O)=O)c3ncccc23)c1 [Compound 50]
[1]
  EC50: 0.001 nM
[2]
  IC50: 221 nM

## CN(C(=O)COc1ccnc2ccc(NS(C)(=O)=O)cc12)[C@H](CN1CC[C@H](O)C1)c1ccccc1 [Compound 4, N-((S)-2-((S)-3-hydroxypyrrolidin-1-yl)-1-phenylethyl)-N-methyl-2-((6-methylsulfonamido)quinolin-4-yloxy)acetamide]
[1]
  EC50: 1.21 nM
[2]
  IC50: 1500 nM

## CN(C(=O)COc1ccc(NS(C)(=O)=O)c2ncccc12)[C@H](CN1CC[C@H](O)C1)c1cccc(C(F)(F)F)c1 [Compound 53, N-((S)-2-((S)-3-hydroxypyrrolidin-1-yl)-1-(3-(trifluoromethyl)phenyl)ethyl)-N-methyl-2-((8-(methylsulfonamido)quinolin-5-yl)oxy) acetamide]
[1]
  EC50: 0.68 nM
[2]
  IC50: 73 nM

## CN(C(=O)COc1ccc2ccoc2c1)[C@H](CN1CC[C@H](O)C1)c1ccccc1 [Compound 17, 2-(benzofuran-6-yloxy)-N-((S)-2-((S)-3-hydroxypyrrolidin-1-yl)-1-phenylethyl)-N-methylacetamide]
[1]
  EC50: 0.012 nM
[2]
  IC50: 7 nM

## CN(C(=O)COc1ccc(NC(=O)CN)c2ncccc12)[C@H](CN1CC[C@H](O)C1)c1ccccc1 [Compound 33, 2-((8-(2-aminoacetamido)quinolin-5-yl)oxy)-N-((S)-2-((S)-3-hydroxypyrrolidin-1-yl)-1-phenylethyl)-N-methylacetamide]
[1]
  EC50: 0.006 nM
[2]
  IC50: 8.4 nM

## CN(C(=O)COc1ccc2ncccc2c1)[C@H](CN1CC[C@H](O)C1)c1ccccc1 [Compound 19, N-((S)-2-((S)-3-hydroxypyrrolidin-1-yl)-1-phenylethyl)-N-methyl-2-(quinolin-6-yloxy)acetamide]
[1]
  EC50: 1.31 nM
[2]
  IC50: 135 nM

## CN(C(=O)COc1ccc(NS(=O)(=O)N(C)C)c2ncccc12)[C@H](CN1CC[C@H](O)C1)c1ccccc1 [Compound 24, 2-((8-((N,N-dimethylsulfamoyl)amino)quinolin-5-yl)oxy)-N-((S)-2-((S)-3-hydroxypyrrolidin-1-yl)-1-phenylethyl)-N-methyl-acetamide]
[1]
  EC50: 0.055 nM
[2]
  IC50: 5 nM

## CN(C(=O)COc1ncc(NS(C)(=O)=O)c2ccccc12)[C@H](CN1CC[C@H](O)C1)c1ccccc1 [Compound 10, N-((S)-2-((S)-3-hydroxypyrrolidin-1-yl)-1-phenylethyl)-N-methyl-2-((4-methylsulfonamido)isoquinolin-1-yloxy)acetamide]
[1]
  EC50: 0.089 nM
[2]
  IC50: 54 nM

## CN(C(=O)COc1ccc(NS(C)(=O)=O)c2ncccc12)[C@H](CN1CC[C@H](O)C1)c1cccc([N+](=O)[O-])c1 [Compound 42, N-((S)-2-((S)-3-hydroxypyrrolidin-1-yl)-1-(3-nitrophenyl)ethyl)-N-methyl-2-((8-(methylsulfonamido)quinolin-5-yl)oxy) acetamide]
[1]
  EC50: 0.044 nM
[2]
  IC50: 50 nM
